These results are taken from ChEMBL document CHEMBL3880404, “Aminopyrimidines useful as kinase inhibitors” (2007).

One assay deals with T1, Aurora kinase A (Homo sapiens, UniProt O14965).
T1 sequence (O14965 whole entry): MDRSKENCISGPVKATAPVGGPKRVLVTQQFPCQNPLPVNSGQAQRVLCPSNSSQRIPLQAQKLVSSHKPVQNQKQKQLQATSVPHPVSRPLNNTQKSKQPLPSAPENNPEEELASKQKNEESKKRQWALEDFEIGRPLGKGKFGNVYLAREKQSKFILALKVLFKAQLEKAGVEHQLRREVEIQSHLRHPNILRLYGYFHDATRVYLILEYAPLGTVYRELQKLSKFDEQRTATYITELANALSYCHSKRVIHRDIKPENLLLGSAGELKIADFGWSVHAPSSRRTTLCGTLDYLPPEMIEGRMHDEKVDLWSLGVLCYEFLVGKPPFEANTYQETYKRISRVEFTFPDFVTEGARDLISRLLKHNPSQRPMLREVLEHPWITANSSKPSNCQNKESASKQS
Nature of the assay: Inhibition of Aurora-2 (unknown origin) pre-incubated with substrate for 10 mins before enzyme addition and measured after 10 mins post enzyme addition using Kemptide substrate by pyruvate kinase and LDH based standard coupled enzyme assay.

Another assay deals with Aurora kinase B (Homo sapiens, UniProt Q96GD4). Nature of the assay: Inhibition of Aurora-1 (unknown origin) incubated for 10 mins using Kemptide substrate and [gamma-33P]-ATP measured after 3 hrs by liquid scintillation counting based radiometric assay.
In assay [1] the target is T2, Tyrosine-protein kinase JAK3 (Homo sapiens, UniProt P52333).
T2 sequence (P52333 whole entry): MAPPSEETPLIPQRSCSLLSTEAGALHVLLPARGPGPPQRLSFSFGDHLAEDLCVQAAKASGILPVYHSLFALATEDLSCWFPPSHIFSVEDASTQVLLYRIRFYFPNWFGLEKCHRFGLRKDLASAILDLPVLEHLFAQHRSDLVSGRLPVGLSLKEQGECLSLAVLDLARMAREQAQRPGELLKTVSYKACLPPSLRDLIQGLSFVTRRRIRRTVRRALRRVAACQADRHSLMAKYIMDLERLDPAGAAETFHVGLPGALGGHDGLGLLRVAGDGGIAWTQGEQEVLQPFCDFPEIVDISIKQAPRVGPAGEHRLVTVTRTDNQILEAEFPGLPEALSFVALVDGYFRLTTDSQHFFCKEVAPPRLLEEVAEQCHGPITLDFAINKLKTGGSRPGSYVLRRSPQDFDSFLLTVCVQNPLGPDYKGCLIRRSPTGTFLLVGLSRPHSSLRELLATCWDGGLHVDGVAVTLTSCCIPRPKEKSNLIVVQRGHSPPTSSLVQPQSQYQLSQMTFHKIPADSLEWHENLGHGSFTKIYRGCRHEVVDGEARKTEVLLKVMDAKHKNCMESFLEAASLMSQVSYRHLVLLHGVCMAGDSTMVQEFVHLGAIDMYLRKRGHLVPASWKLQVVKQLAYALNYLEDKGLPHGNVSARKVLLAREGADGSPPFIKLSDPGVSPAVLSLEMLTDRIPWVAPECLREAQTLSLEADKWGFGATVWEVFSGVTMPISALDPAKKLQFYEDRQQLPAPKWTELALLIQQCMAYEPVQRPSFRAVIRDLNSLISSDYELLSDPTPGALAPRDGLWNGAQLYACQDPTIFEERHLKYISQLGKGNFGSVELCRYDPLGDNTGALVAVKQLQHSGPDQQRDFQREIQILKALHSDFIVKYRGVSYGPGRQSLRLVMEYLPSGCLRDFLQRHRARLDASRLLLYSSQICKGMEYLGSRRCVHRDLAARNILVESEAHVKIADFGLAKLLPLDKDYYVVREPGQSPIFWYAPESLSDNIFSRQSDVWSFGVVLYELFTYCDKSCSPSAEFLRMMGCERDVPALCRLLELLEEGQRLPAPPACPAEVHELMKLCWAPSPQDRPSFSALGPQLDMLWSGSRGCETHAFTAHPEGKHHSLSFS
Nature of the assay: Inhibition of JAK3 (unknown origin) using poly(Glu)4Tyr substrate and [gamma-33P]-ATP incubated for 20 mins by Top-count assay.

Assay [2] deals with Tyrosine-protein kinase JAK2 (Homo sapiens, UniProt O60674). Nature of the assay: Inhibition of JAK2 (unknown origin) using poly(Glu)4Tyr substrate and [gamma-33P]-ATP incubated for 20 mins by Top-count assay.
Tyrosine-protein kinase JAK2, sequence (O60674 whole entry): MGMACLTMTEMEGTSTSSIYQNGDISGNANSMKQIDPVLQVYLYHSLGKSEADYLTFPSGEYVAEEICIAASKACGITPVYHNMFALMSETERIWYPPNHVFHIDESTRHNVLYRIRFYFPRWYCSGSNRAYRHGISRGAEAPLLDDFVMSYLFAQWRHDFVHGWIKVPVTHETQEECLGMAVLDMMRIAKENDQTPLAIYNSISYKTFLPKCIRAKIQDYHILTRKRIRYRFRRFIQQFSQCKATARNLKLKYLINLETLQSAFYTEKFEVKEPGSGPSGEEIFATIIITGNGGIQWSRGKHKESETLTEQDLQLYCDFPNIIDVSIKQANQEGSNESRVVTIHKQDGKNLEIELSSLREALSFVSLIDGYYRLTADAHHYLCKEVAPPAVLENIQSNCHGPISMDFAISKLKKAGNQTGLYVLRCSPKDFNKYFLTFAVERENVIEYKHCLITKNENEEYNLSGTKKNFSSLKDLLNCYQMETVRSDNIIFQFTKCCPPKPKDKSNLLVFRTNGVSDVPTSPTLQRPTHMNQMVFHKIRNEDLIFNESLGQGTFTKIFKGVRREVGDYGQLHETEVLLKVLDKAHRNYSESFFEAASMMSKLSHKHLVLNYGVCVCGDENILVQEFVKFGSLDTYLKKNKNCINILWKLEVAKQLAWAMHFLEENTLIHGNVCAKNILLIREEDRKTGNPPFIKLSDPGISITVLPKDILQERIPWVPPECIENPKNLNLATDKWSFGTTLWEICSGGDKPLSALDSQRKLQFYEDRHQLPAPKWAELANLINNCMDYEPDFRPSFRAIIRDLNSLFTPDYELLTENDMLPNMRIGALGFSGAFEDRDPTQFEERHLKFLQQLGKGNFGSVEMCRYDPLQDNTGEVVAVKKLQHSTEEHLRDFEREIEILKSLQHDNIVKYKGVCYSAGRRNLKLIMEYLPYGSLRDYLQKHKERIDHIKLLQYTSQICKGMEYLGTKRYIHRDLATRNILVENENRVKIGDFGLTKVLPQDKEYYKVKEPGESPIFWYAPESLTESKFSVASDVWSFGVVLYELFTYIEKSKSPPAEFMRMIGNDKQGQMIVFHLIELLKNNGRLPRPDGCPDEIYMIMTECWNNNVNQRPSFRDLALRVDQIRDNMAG

Aurora kinase B, sequence (Q96GD4 whole entry): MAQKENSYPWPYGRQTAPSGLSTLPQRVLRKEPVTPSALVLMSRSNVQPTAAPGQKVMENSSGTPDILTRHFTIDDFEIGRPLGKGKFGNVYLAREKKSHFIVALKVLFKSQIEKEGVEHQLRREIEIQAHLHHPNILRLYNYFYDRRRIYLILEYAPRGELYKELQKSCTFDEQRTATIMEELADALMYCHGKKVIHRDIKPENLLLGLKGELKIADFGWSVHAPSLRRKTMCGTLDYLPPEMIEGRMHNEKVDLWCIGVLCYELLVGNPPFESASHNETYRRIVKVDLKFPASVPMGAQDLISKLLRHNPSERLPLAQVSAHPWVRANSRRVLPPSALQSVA

As to `Cc1cc(Nc2cc(N3CC(F)(C4CC4)C3)nc(O[C@H]3CCN(C(=O)OC(C)(C)C)C3)n2)[nH]n1`, the Ki (in general, a measure of affinity in units of concentration, obtained from inhibition or displacement) was less than 10 nM at Aurora kinase A, less than 500 nM on Aurora kinase B, less than 500 nM in assay [1] and less than 100 nM in assay [2].

In the case of `Cc1cc(Nc2cc(N3CCC3)nc(O[C@H]3CCN(C(=O)OC(C)(C)C)C3)n2)[nH]n1`, the Ki (on Aurora kinase B; in assay [1]) was less than 500 nM throughout.

Regarding `Cc1cc(Nc2cc(N3CC(F)(C4CC4)C3)nc(O[C@H]3CCN(C(=O)c4cc(Cl)ccc4F)C3)n2)n[nH]1` [MK-6592], the Ki on Aurora kinase A was less than 10 nM; in assay [2], less than 100 nM.
